Assay results reported in patent US11384099B2, “Pyrazolopyridinone compounds” (Janssen Pharmaceutica NV, priority 2017, dated 2022).
pIC50: −log10 of the molar value.

Columns and labels:
[1] = system: NIH/3T3 cells transfected with control vector (MOCK); assay: NIH/3T3 mock cell proliferation assay (CTG, counter assay); assay type: cell-based; conditions: Mus musculus, NIH3T3; 72-hr incubation, CellTiter Glo; counter assay for general toxicity
Description: NIH/3T3 Mock Cell Proliferation Assay
In day 1, 90 μL of cell suspension (NIH/3T3 cells transfected with the same control vector as in the above two proliferation assays) (total 30,000 cells per well in growth medium (DMEM containing 1% Glutamax, 10% FBS and 1% Pen/Strep)) was seeded in a 96-well plate and then incubated overnight at 37° C. and 5% CO2. In day 2, 10 μL of growth medium containing 10-fold stock solution of testing compound was added into cell cultures (9 dose points with 3× serial dilution, starting with 30 μM, 0.3% DMSO final). After 72-hr incubation at 37° C. and 5% CO2, in day 5 a volume of 50 μL CellTiter Glo (CTG) reagent was added into cell-containing 96-well plate and the plate was incubated at room temperature for 10 minutes before RLUs (relative light unit) were measured on a microplate reader with luminescence detection module. The RLU value was normalized to survival % and concentration-response curve was plotted using Prism to calculate IC50 (M), pIC50 (−log IC50) and HillSlope value.

[2] = biological target: T1, human FGFR3 V555M enzyme (cytoplasmic domain carrying V555M mutation) (Homo sapiens, UniProt P22607, V555M); assay: FGFR3 V555M mobility shift assay (enzymatic assay, Caliper); assay type: biochemical; conditions: 30 μM ATP, 45 minutes at 30° C.
T1 construct: cytoplasmic domain carrying V555M mutation, from Carna Biosciences; purchased Carna Biosciences
Description: FGFR3 V555M Mobility Shift Assay (Enzymatic Assay)
(§1) In a final reaction volume of 25 μL, 0.04 ng/μL human FGFR3 V555M enzyme (cytoplasmic domain carrying V555M mutation, from Carna Biosciences) was incubated with 30 μM ATP, 1 μM FL-peptide 30 substrate and 250 nL of testing compound (1% DMSO final) in assay buffer (100 mM HEPES pH 7.4, 10 mM MgCl2, 0.003% Brij35, 1 mM DTT). After incubation for 45 minutes at 30° C. the reaction was stopped with 10 μL of 0.5M EDTA pH 8.0, and then L of reaction mixture was transferred to reading plate and measured on Caliper EZ reader II.

[3] = biological target: T2, human FGFR3 wild type enzyme (cytoplasmic domain) (Homo sapiens, UniProt P22607); assay: FGFR3 wild type mobility shift assay (enzymatic assay, Caliper); assay type: biochemical; conditions: 75 μM ATP, 50 minutes at 30° C.
T2 construct: human FGFR3 wild type enzyme (cytoplasmic domain, from Cama Biosciences); purchased Carna Biosciences
Description: FGFR3 Wild Type Mobility Shift Assay (Enzymatic Assay)
as §1, with “FGFR3 wild type” for “FGFR3 V555M”, “(cytoplasmic domain,” for “(cytoplasmic domain carrying V555M mutation,”, “from Cama” for “from Carna”, “with 75” for “with 30”, “for 50” for “for 45”

T1 sequence (P22607 397-806 V555M limits assumed): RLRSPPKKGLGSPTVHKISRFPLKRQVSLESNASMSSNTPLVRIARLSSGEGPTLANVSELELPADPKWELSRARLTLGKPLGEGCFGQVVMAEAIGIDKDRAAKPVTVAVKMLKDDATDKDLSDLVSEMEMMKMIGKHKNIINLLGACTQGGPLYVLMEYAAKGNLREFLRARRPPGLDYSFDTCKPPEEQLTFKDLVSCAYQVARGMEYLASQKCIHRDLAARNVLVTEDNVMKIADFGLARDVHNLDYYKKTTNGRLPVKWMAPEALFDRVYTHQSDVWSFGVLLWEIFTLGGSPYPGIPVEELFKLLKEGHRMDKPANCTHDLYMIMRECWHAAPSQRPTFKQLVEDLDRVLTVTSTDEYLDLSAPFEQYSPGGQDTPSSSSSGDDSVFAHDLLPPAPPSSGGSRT
T2 sequence (P22607 397-806 limits assumed): as the sequence (P22607 397-806 V555M limits assumed) above, with M159V counted along it

SMILES	pIC50 [1]	pIC50 [2]	pIC50 [3]
CCn1cc2[nH]c(=O)c(-c3nc4cc(OC)c(OC)cc4[nH]3)c(N[C@@H](C)c3cocn3)c2n1 (single isomer, unassigned) [Compound 5A, (S*)-6-(5,6-Dimethoxy-H-benzo[d]imidazol-2-yl)-2-ethyl-7-((1-(oxazol-4-yl)ethyl)-amino)-2H-pyrazolo[4,3-b]pyridin-5 (4H)-one]	6.42	–	–
CC(C)[C@H](Nc1c(-c2nc3ccc(C(N)=O)cc3[nH]2)c(=O)[nH]c2cn(C)nc12)c1ncccn1 (single isomer, unassigned) [Compound 9, (S*)-2-(2-methyl-7-((2-methyl-1-(pyrimidin-2-yl)propyl)amino)-5-oxo-4,5-dihydro-2H-pyrazolo[4,3-b]pyridin-6-yl)-1H-benzo[d]imidazole-6-carboxamide]	5.57	–	–
CC(C)[C@H](Nc1c(-c2nc3ccc(C(=O)N(C)C)cc3[nH]2)c(=O)[nH]c2cn(C)nc12)c1ncccn1 (single isomer, unassigned) [Compound 10, (S*)—N,N-dimethyl-2-(2-methyl-7-((2-methyl-1-(pyrimidin-2-yl)propyl)amino)-5-oxo-4,5-dihydro-2H-pyrazolo[4,3-b]pyridin-6-yl)-1H-benzo[d]imidazole-6-carboxamide]	5.86	–	–
CC(C)[C@H](Nc1c(-c2nc3cnc(N(C)C)cc3[nH]2)c(=O)[nH]c2cn(C)nc12)c1ncccn1 (single isomer, unassigned) [Compound 11, (S*)-6-(6-(dimethylamino)-1H-imidazo[4,5-c]pyridin-2-yl)-2-methyl-7-((2-methyl-1-(pyrimidin-2-yl)propyl)amino)-2H-pyrazolo[4,3-b]pyridin-5 (4H)-one]	5.73	–	–
COCC(Nc1c(-c2nc3ccc(OC)cc3[nH]2)c(=O)[nH]c2cn(C)nc12)c1ncccn1 (single isomer, unassigned) [Compound 13, (R*)-7-((2-methoxy-1-(pyrimidin-2-yl)ethyl)amino)-6-(6-methoxy-1H-benzo[d]imidazol-2-yl)-2-methyl-2H-pyrazolo[4,3-b]pyridin-5 (4H)-one]	–	6.43	5.74
CCC(Nc1c(-c2nc3cnc(N(C)C)cc3[nH]2)c(=O)[nH]c2cn(C)nc12)c1ncccn1 (single isomer, unassigned) [Compound 14, (S*)-6-(6-(dimethylamino)-1H-imidazo[4,5-c]pyridin-2-yl)-2-methyl-7-((1-(pyrimidin-2-yl)propyl)amino)-2H-pyrazolo[4,3-b]pyridin-5 (4H)-one]	–	7.93	7.14
COc1ccc2[nH]c(-c3c(NC(c4ncccn4)C(C)C)c4nn(C)cc4[nH]c3=O)nc2c1 (single isomer, unassigned) [Compound 15, (S*)-6-(5-Methoxy-1H-benzo[d]imidazol-2-yl)-2-methyl-7-((2-methyl-1-(pyrimidin-2-yl)-propyl)amino)-2H-pyrazolo[4,3-b]pyridin-5 (4H)-one]	5.87	–	–
COCC(Nc1c(-c2nc3cnc(OC)cc3[nH]2)c(=O)[nH]c2cn(C)nc12)c1ncccn1 (single isomer, unassigned) [Compound 19, (S*)-7-((2-methoxy-1-(pyrimidin-2-yl)ethyl)amino)-6-(6-methoxy-1H-imidazo[4,5-c]-pyridin-2-yl)-2-methyl-2H-pyrazolo[4,3-b]pyridin-5 (4H)-one]	–	6.61	5.91
COCC(Nc1c(-c2nc3cnc(OC)cc3[nH]2)c(=O)[nH]c2cn(C)nc12)c1ncccn1 (single isomer, unassigned) [Compound 20, (R*)-7-((2-methoxy-1-(pyrimidin-2-yl)ethyl)amino)-6-(6-methoxy-1H-imidazo[4,5-c]-pyridin-2-yl)-2-methyl-2H-pyrazolo[4,3-b]pyridin-5 (4H)-one]	–	8.33	7.65
CC(C)C(Nc1c(-c2nc3cnccc3[nH]2)c(=O)[nH]c2cn(C)nc12)c1ncccn1 (single isomer, unassigned) [Compound 24, (S*)-6-(1H-imidazo[4,5-c]pyridin-2-yl)-2-methyl-7-((2-methyl-1-(pyrimidin-2-yl)propyl)-amino)-2H-pyrazolo[4,3-b]pyridin-5 (4H)-one]	5.52	–	–
COC[C@@H](Nc1c(-c2nc3cc(OC)c(OC)cc3[nH]2)c(=O)[nH]c2cn(C)nc12)c1ncccn1 (single isomer, unassigned) [Compound 25, (S*)-6-(5,6-dimethoxy-H-benzo[d]imidazol-2-yl)-7-((2-methoxy-1-(pyrimidin-2-yl)-ethyl)amino)-2-methyl-2H-pyrazolo[4,3-b]pyridin-5 (4H)-one]	5.34	–	–
COCC(Nc1c(-c2nc3cc(OC)c(OC)cc3[nH]2)c(=O)[nH]c2cn(C)nc12)c1ncccn1 (single isomer, unassigned) [Compound 26, (R*)-6-(5,6-dimethoxy-1H-benzo[d]imidazol-2-yl)-7-((2-methoxy-1-(pyrimidin-2-yl)-ethyl)amino)-2-methyl-2H-pyrazolo[4,3-b]pyridin-5 (4H)-one]	–	6.66	6.10
CCn1cc2[nH]c(=O)c(-c3nc4ccc(OC)cc4[nH]3)c(N[C@@H](C)c3cocn3)c2n1 (single isomer, unassigned) [Compound 33, (S*)-2-ethyl-6-(6-methoxy-1H-benzo[d]imidazol-2-yl)-7-((1-(oxazol-4-yl)ethyl)amino)-2H-pyrazolo[4,3-b]125yridine-5 (4H)-one]	–	8.38	7.62
COCCOc1cc2[nH]c(-c3c(NC(c4ncccn4)C(C)C)c4nn(C)cc4[nH]c3=O)nc2cc1OC (single isomer, unassigned) [Compound 35, (R*)-6-(5-methoxy-6-(2-methoxyethoxy)-1H-benzo[d]imidazol-2-yl)-2-methyl-7-((2-methyl-1-(pyrimidin-2-yl)propyl)amino)-2H-pyrazolo[4,3-b]pyridin-5 (4H)-one]	–	7.09	6.53
COc1cnc2nc(-c3c(NC(c4ncccn4)C(C)C)c4nn(C)cc4[nH]c3=O)[nH]c2c1 (single isomer, unassigned) [Compound 39, (R*)-6-(6-methoxy-1H-imidazo[4,5-b]pyridin-2-yl)-2-methyl-7-((2-methyl-1-(pyrimidin-2-yl)propyl)amino)-2,4-dihydro-5H-pyrazolo[4,3-b]pyridin-5-one]	–	7.31	6.58
CCC(Nc1c(-c2nc3cc(OC)c(OC)cc3[nH]2)c(=O)[nH]c2cn(C)nc12)c1ncccn1 (single isomer, unassigned) [Compound 43, (R*)-6-(5,6-dimethoxy-1H-benzo[d]imidazol-2-yl)-2-methyl-7-((1-(pyrimidin-2-yl)-propyl)amino)-2H-pyrazolo[4,3-b]pyridin-5 (4H)-one]	–	7.36	6.86
COc1cc2nc(-c3c(NC(c4ncccn4)C4CC4)c4nn(C)cc4[nH]c3=O)[nH]c2cc1OC (single isomer, unassigned) [Compound 47, (R*)-7-((cyclopropyl(pyrimidin-2-yl)methyl)amino)-6-(5,6-dimethoxy-1H-benzo[d]-imidazol-2-yl)-2-methyl-2H-pyrazolo[4,3-b]pyridin-5 (4H)-one]	–	7.62	7.00
CCC(Nc1c(-c2nc3ccc(OCCOC)cc3[nH]2)c(=O)[nH]c2cn(C)nc12)c1ncccn1 (single isomer, unassigned) [Compound 49, (R*)-6-(6-(2-methoxyethoxy)-1H-benzo[d]imidazol-2-yl)-2-methyl-7-((1-(pyrimidin-2-yl)propyl)amino)-2H-pyrazolo[4,3-b]pyridin-5 (4H)-one]	–	7.23	6.82
CC[C@@H](Nc1c(-c2nc3cnc(N(C)C)cc3[nH]2)c(=O)[nH]c2cn(C)nc12)c1ncccn1 [Compound 21, (R)-6-(6-(dimethylamino)-1H-imidazo[4,5-c]pyridin-2-yl)-2-methyl-7-((1-(pyrimidin-2-yl)propyl)amino)-2H-pyrazolo[4,3-b]pyridin-5 (4H)-one]	–	6.46	5.91
CCn1cc2[nH]c(=O)c(-c3nc4cc(OC)c(OC)cc4[nH]3)c(N[C@@H](C)c3ncccn3)c2n1 [Compound 37, (S)-6-(5,6-dimethoxy-1H-benzo[d]imidazol-2-yl)-2-ethyl-7-((1-(pyrimidin-2-yl)ethyl)-amino)-2H-pyrazolo[4,3-b]pyridin-5 (4H)-one]	–	9.17	8.74
